Entries after “also recorded” stand apart in the source; their conditions may differ.
Tests used:
BLM lung injury, mice = assay: BLM lung injury, subacute stage, HE staining; assay type: in vivo, mouse; details: 300 μg/kg, i.h., qd from 24 h after BLM, to day 15
Method: After the mice were anesthetized (1% sodium pentobarbital 50 mg/kg was injected intraperitoneally), 150 μL of bleomycin (BLM, 5 mg/mL, BIO-000001) was inhaled into the lungs of the mice by tracheal inhalation instillation. One day later, the mice were randomly divided into model and drug treatment groups, and the mice in the control group were only subjected to saline inhalation.
(A) Flow chart of animal experiments. SDC487-131 (300 μg/kg, i.h., qd) was administered starting 24 h after BLM modeling, and the experiment ended on the 15th day; (B) The pathological changes at the subacute stage of BLM lung injury were observed by HE staining (scale bar = 1000 μm, 50μm). […] To achieve better results, we used intratracheal instillation of SDC487-131 (1mg/kg, q3d).

SDC4/integrin-αv = assay: Duolink-PLA, SDC4/integrin-αv extracellular interaction in fibroblast; assay type: cell-based, mouse; details: SDC4_87-131 100 nM; with Anti-SDC4(93-121), n=5
Method: Decellularized lung ECM (dECM) was prepared as described in previous study. 2 × 10^5 cells/mL NIH3T3 cells (mouse […], purchased from the Stem Cell Bank of the Chinese Academy of Sciences, Shanghai, China) were seeded on the dECM slices attached to the bottom of the culture dish and cultured in DMEM medium containing 0.5% fetal bovine serum (Gibco, Waltham, MA, USA) at 37°C and 5% CO2.
Cells or tissue slices were attached to slides, fixed and permeabilized and blocked with Duolink^TM (Merck, MO, USA) blocking buffer. Antibodies against the extracellular domain of SDC4 (5G9, mouse IgG, SCBT #sc-12766), integrin-αv (rabbit IgG, CST #4711) and integrin-β1 (rabbit IgG, CST #34971) were diluted and added to the samples and incubated overnight at 4°C. After washing, PLUS and MINUS (proximity ligation assay, PLA) probes were added to the samples and incubated at 37°C for 1 h. After washing, the samples were sequentially incubated with PLUS and MINUS (PLA) probes, ligation buffer and amplification buffer containing polymerase. Finally, the samples were mounted with in situ mounting medium containing DAPI. Images were acquired using a Leica SP5 confocal microscope (Leica Biosystems, Germany) and quantitative analysis was performed using ImageJ software.

pan-integrins = assay: FN-coating cell adhesion assay (pan-integrins activation); assay type: cell-based, mouse; details: 100 nM, n=5
Method: 10 μg/mL Fibronectin (Merck, #10838039001) was dissolved in serum-free DMEM medium and dropped into a 96-well plate, 50 μL per well. The plate was incubated at 4 °C overnight. After blocking with 3% bovine serum albumin at room temperature for 30 min, 4×10^4 cells were inoculated into each well. After incubation for 30 min, the cells were washed, fixed, and stained with crystal violet (5 mg/mL) for 30 min. Then after the crystal violet was dissolved, it was detected using an ELISA reader at 595 nm.

Ac-NHIPERAGSGSQVPTEPKKLEENEVIPKRISPVEESEDVSNKVSM-NH2 [SDC4_87-131]
BLM lung injury, subacute stage (BLM lung injury, mice): can alleviate BLM lung injury in the subacute stage; also recorded: effective
integrin-αv/SDC4 interaction induced by dECM-PF (SDC4/integrin-αv): significantly reduce
pan-integrins activation (pan-integrins): could inhibit pan-integrins activation
